We go through one molecule from US20240124410A1, “SMALL MOLECULES AND THEIR USE AS MALT1 INHIBITORS” (University of Pittsburgh - Of the Commonwealth System of …, priority 2021, published 2024).

The experiment addresses T1, BCL10-MALT1 interaction (Homo sapiens, UniProt Q9UDY8).
T1 sequence (Q9UDY8 1-824): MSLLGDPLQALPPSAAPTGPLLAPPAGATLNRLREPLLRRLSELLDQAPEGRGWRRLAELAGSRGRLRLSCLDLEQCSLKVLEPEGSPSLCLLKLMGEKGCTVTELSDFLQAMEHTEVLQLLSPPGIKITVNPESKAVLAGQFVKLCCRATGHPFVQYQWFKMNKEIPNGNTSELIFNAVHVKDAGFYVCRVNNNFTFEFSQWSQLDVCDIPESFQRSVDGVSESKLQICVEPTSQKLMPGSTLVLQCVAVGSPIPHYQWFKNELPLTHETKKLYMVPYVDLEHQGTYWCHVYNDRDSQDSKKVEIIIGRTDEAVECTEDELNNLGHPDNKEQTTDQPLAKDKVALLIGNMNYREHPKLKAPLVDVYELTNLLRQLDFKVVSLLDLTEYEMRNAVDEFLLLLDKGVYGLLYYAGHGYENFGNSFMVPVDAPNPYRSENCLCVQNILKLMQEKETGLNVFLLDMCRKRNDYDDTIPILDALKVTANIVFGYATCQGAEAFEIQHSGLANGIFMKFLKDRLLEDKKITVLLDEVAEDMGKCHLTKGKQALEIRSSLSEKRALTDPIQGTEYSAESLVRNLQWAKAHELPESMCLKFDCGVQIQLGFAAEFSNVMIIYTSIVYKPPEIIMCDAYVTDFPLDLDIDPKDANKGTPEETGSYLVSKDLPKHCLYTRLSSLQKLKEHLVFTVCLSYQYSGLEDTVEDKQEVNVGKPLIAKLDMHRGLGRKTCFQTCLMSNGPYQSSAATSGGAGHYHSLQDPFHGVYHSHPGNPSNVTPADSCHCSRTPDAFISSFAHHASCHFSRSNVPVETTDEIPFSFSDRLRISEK
Briefly: ELISA-based protein-protein interaction assay, BCL10-MALT1 (FIG. 2F, 2H); His-tagged recombinant human full-length Bcl10 on plate, GST-tagged recombinant human full-length MALT1. More on the design: GST-tagged recombinant human full-length MALT1 protein; GST; purchased Novus Biologicals H00010892-P01. To be noted: compound preincubated with 100 ng GST-MALT1 for 1 hour, 100 ng His-Bcl10 on plate, one-site binding fit, read-out: IC50 for inhibition of BCL10-MALT1 binding (ELISA). An excerpt:
FIG. 2. In silico screening identifies small molecules targeting the predicted BCL10-binding groove within MALT1 (Ig1-2). (A) We performed a structure-guided in silico screen of 3 million compounds, using the LibDock program from Discovery Studio 3.5, in order to identify candidate molecules that could potentially fit within the identified groove in the MALT1 Ig1-2 domain. Lipinski's rule of five filters (LipinskiRo5) were applied to enrich for compounds with drug-like properties. Potential compound hits were then screened for their ability to disrupt the MALT1-BCL10 interaction using SPR analysis. 9 candidate compounds were then subjected to a second, ELISA-based MALT1-BCL10 interaction assay, identifying 2 compounds that could disrupt the interaction in both SPR and ELISA assays. M1i-124 and M1i-1255 are the two compounds identified to disrupt the BCL10-MALT1 interaction. M1i-124 became our lead compound and M1i-1255 is partially characterized in FIG. 8. (B) Structure of M1i-124. (C) Model of M1i-124 docked onto the MALT1 Ig1-2 domain groove (PDB 3K0W). […] (E) SPR analysis was performed to determine the IC50 for M1i-124 disruption of the BCL10-MALT1 interaction in a dose-response assay. (F) ELISA analysis confirmed that M1i-124 disrupts the interaction between BCL10 and MALT1 in dose dependent fashion (left). […] Circles highlight sites that differ from parent compound, M1i-124. […]
For orientation: An ELISA detects its analyte on a solid surface through an enzyme-linked reagent.

As to `COc1ccc(CNS(=O)(=O)c2ccc(Cc3ccc(S(=O)(=O)NCc4ccc(OC)cc4)cc3)cc2)cc1` [M1i-124d1], the IC50 worked out at 8.45 µM.

Broadly, the IC50 is the concentration at which inhibition is half-maximal.
